Measurements: patent US20240197695A1, “COMPOUND FOR PREVENTION OR TREATMENT OF KIDNEY DISEASE” (ONCOCROSS CO.,LTD, priority 2021, published 2024)

Assays:
[1] = system: diabetic nephrosis animal models; experiment: Blood indoxyl sulfate by LC MS/MS; format: in vivo, mice (C57BL/6); conditions: after observation period, fasted
Procedure: (§1) STZ (Sigma-aldrich, S0130, 40 mg/kg b.w., in 0.1 M citrate buffer pH 4.5) was intraperitoneally administered to 9-week-old male mice (C57BL/6) once/1 day for 5 days to perform a first disease induction. After 7 weeks of the first induction, a second induction was performed using the same method as the first induction. For 5 days of an STZ administration period for the first induction, 10% sucrose was administered as drinking water. In addition, after 14 days of the second administration, blood glucose levels were confirmed to confirm the induction rate, and the induced animals were separated into groups. Experimental substances (R)-4-{(R)-1-[7-(3,4,5-trimethoxy-phenyl)-[1,6] naphthyridin-5-yloxy]-ethyl}pyrrolidin-2-one (BI-1002494) and cromolyn (OC-101) were administered orally into the stomach at 10 mL/kg using an administration syringe (sonde) before 16:00 daily for 12 weeks at a frequency of 7 days/week at doses shown in Table 1 below, and dexamethasone was orally administered as a positive control substance.
(§2) After the observation period for mice of each group in Example 1 was terminated, all surviving animals were fasted in the same manner as when measuring blood glucose levels, and then anesthetized by inhaling isoflurane, and blood was collected from the abdominal vena cava through laparotomy. After the blood collection was completed, the veins and arteries were cut under anesthesia and exsanguinated. The collected blood was left at room temperature for 30 minutes or more and then centrifuged at 3,000 rpm for 20 minutes. Thereafter, glucose, Blood urea nitrogen (BUN), and creatinine were analyzed using an automated blood biochemistry analyzer (Hitachi 3100, Hitachi Co. Ltd., Japan). Indoxyl sulfate (a substance that was mainly produced in the intestines to cause renal injury, and a substance that caused end-stage renal failure by advancing renal function damage in patients with renal failure during hemodialysis) was analyzed using LC MS/MS. In addition, blood insulin was analyzed according to a method represented by a commercial Mouse Insulin ELISA KIT (#AKRIN-011T, Sibayagi Co. Ltd., Japan).

[2] = system: diabetic nephrosis animal models; experiment: Blood insulin (Mouse Insulin ELISA KIT) and HOMA-IR; format: in vivo, mice (C57BL/6); conditions: for HOMA-IR, Mean / Insulin, Mean: after observation period, fasted
Procedure: as §1, §2

COc1cc(-c2cc3ncccc3c(O[C@H](C)[C@H]3CNC(=O)C3)n2)cc(OC)c1OC [BI-1002494, (R)-4-{(R)-1-[7-(3,4,5-trimethoxy-phenyl)-[1,6]naphthyridin-5-yloxy]-ethyl}pyrrolidin-2-one]
Indoxyl sulfate, Mean ([1]; 12.5 mg/kg/day oral): 2.2 µg/mL
Indoxyl sulfate, Mean ([1]; 25 mg/kg/day oral): 2.2 µg/mL
Indoxyl sulfate, Mean ([1]; 50 mg/kg/day oral): 1.9 µg/mL
HOMA-IR, Mean ([2]; 12.5 mg/kg/day oral): 12.4
Insulin, Mean ([2]; 12.5 mg/kg/day oral): 0.7 ng/mL
HOMA-IR, Mean ([2]; 25 mg/kg/day oral): 8.7^#
Insulin, Mean ([2]; 25 mg/kg/day oral): 0.5^# ng/ml
HOMA-IR, Mean ([2]; 50 mg/kg/day oral): 6.9^#
Insulin, Mean ([2]; 50 mg/kg/day oral): 0.5 ng/mL
HOMA-IR compared with that of the disease control group ([2]; 25 and 50 mg/kg administered groups): statistically significantly reduced
Insulin resistance (HOMA-IR), summary ([2]; after induction of diabetic renal diseases): decreased in a dose-dependent manner
